{"source": "ChEMBL document CHEMBL5385847", "about": "“Design, synthesis and biological evaluation of a new class of 7H-pyrrolo[2,3-d]pyrimidine derivatives as Mps1 inhibitors for the treatment of breast cancer” (Eur J Med Chem, 2023)", "key": {"[1]": {"assay": "Toxicity in BALB/C mouse xenografted with mouse 4T1-Luc cells assessed as histological change in kidneys at 30 to 60 mg/kg, po qd treated for 15 days by H and E staining based analysis", "assay_type": "organism-based", "details": "in vivo, 360 h, dose 30-60 mg/kg, time 15 day"}, "4T1-Luc": {"test_system": "4T1-Luc", "assay": "Antitumor activity against mouse 4T1-Luc cells xenografted in BALB/C mouse assessed as delay in tumor growth at 30 to 60 mg/kg, po qd treated for 15 days", "assay_type": "functional, organism-based", "details": "dose 30-60 mg/kg, time 15.0 day"}, "[2]": {"assay": "Antitumor activity against mouse 4T1-Luc cells xenografted in BALB/C mouse assessed as reduction in mean tumor weight at 60 mg/kg, po qd treated for 15 days (reference value: 3.56 g)", "assay_type": "functional", "details": "time 15 day"}, "[3]": {"assay": "Antitumor activity against mouse 4T1-Luc cells xenografted in BALB/C mouse assessed as reduction in mean tumor weight at 30 mg/kg, po qd treated for 15 days (reference value: 3.56 g)", "assay_type": "functional", "details": "time 15 day"}, "4T1 [4]": {"test_system": "4T1", "assay": "Induction of apoptosis in 4T1 cells assessed as increase in cleaved caspase-3 level upto 3 uM incubated for 48 hrs by Western blot analysis", "assay_type": "functional, cell-based", "details": "Mus musculus"}, "4T1 [5]": {"test_system": "4T1", "assay": "Induction of apoptosis in 4T1 cells assessed as late apoptotic cells at 5 uM incubated for 48 hrs by Annexin V-FITC/PI staining based flow cytometry (reference value: 1.73 %)", "assay_type": "functional, Mus musculus"}, "4T1 [6]": {"test_system": "4T1", "assay": "Induction of apoptosis in 4T1 cells assessed as necrotic cells at 1 uM incubated for 48 hrs by Annexin V-FITC/PI staining based flow cytometry (reference value: 0.20 %)", "assay_type": "functional, Mus musculus"}, "4T1 [7]": {"test_system": "4T1", "assay": "Induction of apoptosis in 4T1 cells assessed as late apoptotic cells at 1 uM incubated for 48 hrs by Annexin V-FITC/PI staining based flow cytometry (reference value: 1.73 %)", "assay_type": "functional, Mus musculus"}, "4T1 [8]": {"test_system": "4T1", "assay": "Induction of apoptosis in 4T1 cells assessed as early apoptotic cells at 0.5 uM incubated for 48 hrs by Annexin V-FITC/PI staining based flow cytometry (reference value: 0.32 %)", "assay_type": "functional, Mus musculus"}, "MCF7 [9]": {"test_system": "MCF7", "assay": "Induction of apoptosis in human MCF7 cells assessed as late apoptotic cells at 0.5 uM incubated for 48 hrs by Annexin V-FITC/PI staining based flow cytometry (reference value: 0.63 %)", "assay_type": "functional"}, "4T1 [10]": {"test_system": "4T1", "assay": "Induction of cell cycle arrest in 4T1 cells at G2/M phase assessed as decrease in CDK1 level incubated for 24 hrs by Western blot analysis", "assay_type": "functional, cell-based", "details": "Mus musculus, dose <= 3.0 µM"}, "4T1 [11]": {"test_system": "4T1", "assay": "Induction of cell cycle arrest in 4T1 cells at G2/M phase incubated for 24 hrs by Annexin V/PI staining based flow cytometry", "assay_type": "functional", "details": "Mus musculus, dose <= 5.0 µM"}, "MCF7 [12]": {"test_system": "MCF7", "assay": "Induction of cell cycle arrest in human MCF7 cells at G2/M phase incubated for 24 hrs by Annexin V/PI staining based flow cytometry", "assay_type": "functional", "details": "dose <= 5.0 µM"}, "4T1 [13]": {"test_system": "4T1", "assay": "Antiproliferative activity against 4T1 cells upto 5 uM measured after 14 days by colony formation assay", "assay_type": "functional, cell-based", "details": "Mus musculus, time 14.0 day"}, "4T1 [14]": {"test_system": "4T1", "assay": "Antiproliferative activity against 4T1 cells assessed as inhibition of cell viability incubated for 24 to 72 hrs by MTT assay", "assay_type": "functional, cell-based", "details": "Mus musculus, dose <= 10.0 µM, time 24-72 hrs"}, "HEY [15]": {"test_system": "HEY", "assay": "Antiproliferative activity against human HEY cells assessed as inhibition of cell viability upto 10 uM incubated for 72 hrs by MTT assay", "assay_type": "functional, cell-based"}, "A549": {"test_system": "A549", "assay": "Antiproliferative activity against human A549 cells assessed as inhibition of cell viability by MTT assay", "assay_type": "functional, cell-based"}, "HEY [16]": {"test_system": "HEY", "assay": "Antiproliferative activity against human HEY cells assessed as inhibition of cell viability by MTT assay", "assay_type": "functional, cell-based"}, "[17]": {"target": "ALK tyrosine kinase receptor (Homo sapiens) (UniProt Q9UM73)", "sequence (Q9UM73 19-1620 limits assumed)": "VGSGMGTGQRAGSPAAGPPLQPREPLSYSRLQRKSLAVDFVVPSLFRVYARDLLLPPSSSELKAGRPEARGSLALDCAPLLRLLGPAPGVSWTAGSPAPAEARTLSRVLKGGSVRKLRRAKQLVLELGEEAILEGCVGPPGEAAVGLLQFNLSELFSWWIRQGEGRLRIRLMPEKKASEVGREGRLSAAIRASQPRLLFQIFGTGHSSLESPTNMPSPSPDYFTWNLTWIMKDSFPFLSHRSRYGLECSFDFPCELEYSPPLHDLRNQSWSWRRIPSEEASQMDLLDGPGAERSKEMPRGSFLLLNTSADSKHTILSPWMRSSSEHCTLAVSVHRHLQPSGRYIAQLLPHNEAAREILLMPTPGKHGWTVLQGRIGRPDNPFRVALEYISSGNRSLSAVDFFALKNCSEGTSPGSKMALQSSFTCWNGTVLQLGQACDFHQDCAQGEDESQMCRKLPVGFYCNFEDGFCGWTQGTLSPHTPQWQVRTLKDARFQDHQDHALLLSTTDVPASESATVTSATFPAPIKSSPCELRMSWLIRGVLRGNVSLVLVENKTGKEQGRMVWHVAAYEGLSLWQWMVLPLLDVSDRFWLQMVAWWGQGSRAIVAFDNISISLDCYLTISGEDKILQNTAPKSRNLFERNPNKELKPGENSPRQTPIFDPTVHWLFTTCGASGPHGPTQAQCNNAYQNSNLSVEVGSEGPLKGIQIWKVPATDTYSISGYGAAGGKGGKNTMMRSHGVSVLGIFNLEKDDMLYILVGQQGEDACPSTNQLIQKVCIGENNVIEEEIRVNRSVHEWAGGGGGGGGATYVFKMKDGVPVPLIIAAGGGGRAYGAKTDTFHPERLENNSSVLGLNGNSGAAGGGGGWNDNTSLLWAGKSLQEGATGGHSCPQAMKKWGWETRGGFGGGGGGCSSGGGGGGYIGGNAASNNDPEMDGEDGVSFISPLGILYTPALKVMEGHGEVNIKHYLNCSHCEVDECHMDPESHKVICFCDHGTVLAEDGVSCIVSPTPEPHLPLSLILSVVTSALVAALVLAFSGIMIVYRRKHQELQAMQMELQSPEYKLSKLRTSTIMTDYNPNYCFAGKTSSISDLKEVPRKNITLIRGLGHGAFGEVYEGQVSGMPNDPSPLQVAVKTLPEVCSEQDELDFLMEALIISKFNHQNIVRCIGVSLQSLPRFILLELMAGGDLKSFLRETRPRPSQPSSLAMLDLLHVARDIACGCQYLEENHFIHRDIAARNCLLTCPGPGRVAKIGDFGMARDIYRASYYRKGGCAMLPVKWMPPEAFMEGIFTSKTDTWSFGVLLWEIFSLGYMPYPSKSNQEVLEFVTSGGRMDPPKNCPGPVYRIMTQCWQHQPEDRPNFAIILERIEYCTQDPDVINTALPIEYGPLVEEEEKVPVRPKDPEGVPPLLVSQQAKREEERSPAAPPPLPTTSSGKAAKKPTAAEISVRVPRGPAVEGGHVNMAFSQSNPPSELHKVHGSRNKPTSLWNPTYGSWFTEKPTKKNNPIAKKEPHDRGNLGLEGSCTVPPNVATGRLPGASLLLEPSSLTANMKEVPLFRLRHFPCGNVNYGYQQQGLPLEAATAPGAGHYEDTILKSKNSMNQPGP", "assay": "Inhibition of human ALK at 0.1 uM by KINOMEscan assay relative to control"}, "[18]": {"target": "Proto-oncogene tyrosine-protein kinase Src (Homo sapiens) (UniProt P12931)", "sequence (P12931 2-536 limits assumed)": "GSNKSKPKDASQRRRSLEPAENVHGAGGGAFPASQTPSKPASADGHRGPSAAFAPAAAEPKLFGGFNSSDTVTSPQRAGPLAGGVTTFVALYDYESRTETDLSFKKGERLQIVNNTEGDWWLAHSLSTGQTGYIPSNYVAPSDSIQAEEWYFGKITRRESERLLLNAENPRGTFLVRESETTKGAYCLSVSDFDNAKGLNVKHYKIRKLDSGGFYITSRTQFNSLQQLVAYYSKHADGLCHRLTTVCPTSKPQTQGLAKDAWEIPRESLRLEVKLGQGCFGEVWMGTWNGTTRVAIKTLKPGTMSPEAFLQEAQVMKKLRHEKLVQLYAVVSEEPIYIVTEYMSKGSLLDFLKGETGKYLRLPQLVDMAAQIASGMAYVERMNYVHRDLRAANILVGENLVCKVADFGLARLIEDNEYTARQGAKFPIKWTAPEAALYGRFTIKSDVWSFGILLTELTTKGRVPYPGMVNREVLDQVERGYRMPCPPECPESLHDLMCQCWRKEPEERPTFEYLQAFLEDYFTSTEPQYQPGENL", "assay": "Inhibition of human cSRC at 0.1 uM by KINOMEscan assay relative to control"}, "[19]": {"target": "Angiopoietin-1 receptor (Homo sapiens) (UniProt Q02763)", "assay": "Inhibition of human Tie2 at 0.1 uM by KINOMEscan assay relative to control"}, "[20]": {"target": "Tyrosine-protein kinase JAK2 (Homo sapiens) (UniProt O60674)", "sequence (O60674 whole entry)": "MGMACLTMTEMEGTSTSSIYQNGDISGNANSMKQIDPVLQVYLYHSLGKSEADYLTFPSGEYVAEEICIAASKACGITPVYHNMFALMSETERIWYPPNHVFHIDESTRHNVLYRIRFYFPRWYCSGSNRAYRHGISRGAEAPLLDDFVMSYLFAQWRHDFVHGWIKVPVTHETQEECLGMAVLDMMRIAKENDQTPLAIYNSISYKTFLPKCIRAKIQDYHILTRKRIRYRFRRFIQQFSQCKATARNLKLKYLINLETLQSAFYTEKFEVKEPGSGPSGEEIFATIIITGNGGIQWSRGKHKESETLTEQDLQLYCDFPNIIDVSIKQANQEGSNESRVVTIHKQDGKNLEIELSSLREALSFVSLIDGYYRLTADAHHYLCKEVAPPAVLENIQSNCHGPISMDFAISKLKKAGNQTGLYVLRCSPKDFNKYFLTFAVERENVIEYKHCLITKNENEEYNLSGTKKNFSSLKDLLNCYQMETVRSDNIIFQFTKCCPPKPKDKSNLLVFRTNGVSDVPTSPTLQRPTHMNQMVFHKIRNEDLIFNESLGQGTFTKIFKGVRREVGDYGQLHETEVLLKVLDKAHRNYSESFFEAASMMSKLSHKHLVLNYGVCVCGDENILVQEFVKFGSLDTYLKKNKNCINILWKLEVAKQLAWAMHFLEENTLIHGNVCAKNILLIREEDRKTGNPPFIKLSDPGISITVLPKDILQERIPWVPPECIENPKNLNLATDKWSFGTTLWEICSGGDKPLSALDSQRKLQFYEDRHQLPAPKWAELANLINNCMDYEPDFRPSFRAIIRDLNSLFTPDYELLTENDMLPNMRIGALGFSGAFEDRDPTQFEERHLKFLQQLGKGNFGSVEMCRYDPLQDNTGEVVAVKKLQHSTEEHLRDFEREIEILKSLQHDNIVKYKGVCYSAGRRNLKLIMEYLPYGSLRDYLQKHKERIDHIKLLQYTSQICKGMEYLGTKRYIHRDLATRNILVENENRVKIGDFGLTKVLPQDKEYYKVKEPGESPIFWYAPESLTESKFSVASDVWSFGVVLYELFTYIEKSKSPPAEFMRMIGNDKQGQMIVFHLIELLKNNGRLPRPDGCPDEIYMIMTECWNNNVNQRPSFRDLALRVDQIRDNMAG", "assay": "Inhibition of human JAK2 at 0.1 uM by KINOMEscan assay relative to control"}, "[21]": {"target": "Tyrosine-protein kinase Yes (Homo sapiens) (UniProt P07947)", "assay": "Inhibition of human Yes at 1 uM by KINOMEscan assay relative to control"}, "[22]": {"target": "Hepatocyte growth factor receptor (Homo sapiens) (UniProt P08581)", "sequence (P08581 whole entry)": "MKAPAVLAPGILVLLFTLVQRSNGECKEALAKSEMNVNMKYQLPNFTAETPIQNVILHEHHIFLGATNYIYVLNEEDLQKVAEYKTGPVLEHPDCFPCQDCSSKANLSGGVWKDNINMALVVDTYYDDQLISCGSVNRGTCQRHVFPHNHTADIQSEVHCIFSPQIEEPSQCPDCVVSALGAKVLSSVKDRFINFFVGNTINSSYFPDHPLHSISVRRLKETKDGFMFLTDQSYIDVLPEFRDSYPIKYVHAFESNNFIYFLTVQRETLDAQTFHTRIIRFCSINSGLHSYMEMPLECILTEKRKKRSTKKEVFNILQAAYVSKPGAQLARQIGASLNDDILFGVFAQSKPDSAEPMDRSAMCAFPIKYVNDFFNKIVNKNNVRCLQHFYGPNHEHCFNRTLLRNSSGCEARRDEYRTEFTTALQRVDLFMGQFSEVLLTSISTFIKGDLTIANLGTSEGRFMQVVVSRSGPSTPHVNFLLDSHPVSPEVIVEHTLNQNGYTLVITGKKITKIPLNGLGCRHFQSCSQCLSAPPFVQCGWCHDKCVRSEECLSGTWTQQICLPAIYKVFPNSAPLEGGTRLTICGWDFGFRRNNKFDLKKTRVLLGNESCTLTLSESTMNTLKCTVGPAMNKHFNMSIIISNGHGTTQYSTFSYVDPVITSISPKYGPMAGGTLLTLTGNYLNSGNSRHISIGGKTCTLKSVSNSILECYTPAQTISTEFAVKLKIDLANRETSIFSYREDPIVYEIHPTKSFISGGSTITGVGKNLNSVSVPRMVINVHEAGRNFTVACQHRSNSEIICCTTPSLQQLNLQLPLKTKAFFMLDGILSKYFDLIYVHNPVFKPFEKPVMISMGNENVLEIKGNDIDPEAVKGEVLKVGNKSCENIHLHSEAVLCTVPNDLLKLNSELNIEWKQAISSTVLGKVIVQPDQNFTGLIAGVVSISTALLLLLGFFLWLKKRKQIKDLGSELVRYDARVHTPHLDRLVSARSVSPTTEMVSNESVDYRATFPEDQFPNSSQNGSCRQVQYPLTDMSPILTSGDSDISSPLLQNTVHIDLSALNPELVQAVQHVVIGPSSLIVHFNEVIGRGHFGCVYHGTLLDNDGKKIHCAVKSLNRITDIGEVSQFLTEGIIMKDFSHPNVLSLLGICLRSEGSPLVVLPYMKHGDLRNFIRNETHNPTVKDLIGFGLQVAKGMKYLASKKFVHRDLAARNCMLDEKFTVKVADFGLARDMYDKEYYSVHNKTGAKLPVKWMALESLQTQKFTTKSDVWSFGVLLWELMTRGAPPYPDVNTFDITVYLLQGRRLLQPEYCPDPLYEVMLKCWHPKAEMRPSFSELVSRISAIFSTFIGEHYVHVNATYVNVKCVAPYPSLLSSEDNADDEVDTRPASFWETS", "assay": "Inhibition of human Met at 1 uM by KINOMEscan assay relative to control"}, "[23]": {"target": "Receptor-type tyrosine-protein kinase FLT3 (Homo sapiens) (UniProt P36888)", "assay": "Inhibition of human FLT3 at 1 uM by KINOMEscan assay relative to control"}, "[24]": {"target": "T1, Dual specificity protein kinase TTK (Homo sapiens, UniProt P33981)", "T1 sequence (P33981 whole entry)": "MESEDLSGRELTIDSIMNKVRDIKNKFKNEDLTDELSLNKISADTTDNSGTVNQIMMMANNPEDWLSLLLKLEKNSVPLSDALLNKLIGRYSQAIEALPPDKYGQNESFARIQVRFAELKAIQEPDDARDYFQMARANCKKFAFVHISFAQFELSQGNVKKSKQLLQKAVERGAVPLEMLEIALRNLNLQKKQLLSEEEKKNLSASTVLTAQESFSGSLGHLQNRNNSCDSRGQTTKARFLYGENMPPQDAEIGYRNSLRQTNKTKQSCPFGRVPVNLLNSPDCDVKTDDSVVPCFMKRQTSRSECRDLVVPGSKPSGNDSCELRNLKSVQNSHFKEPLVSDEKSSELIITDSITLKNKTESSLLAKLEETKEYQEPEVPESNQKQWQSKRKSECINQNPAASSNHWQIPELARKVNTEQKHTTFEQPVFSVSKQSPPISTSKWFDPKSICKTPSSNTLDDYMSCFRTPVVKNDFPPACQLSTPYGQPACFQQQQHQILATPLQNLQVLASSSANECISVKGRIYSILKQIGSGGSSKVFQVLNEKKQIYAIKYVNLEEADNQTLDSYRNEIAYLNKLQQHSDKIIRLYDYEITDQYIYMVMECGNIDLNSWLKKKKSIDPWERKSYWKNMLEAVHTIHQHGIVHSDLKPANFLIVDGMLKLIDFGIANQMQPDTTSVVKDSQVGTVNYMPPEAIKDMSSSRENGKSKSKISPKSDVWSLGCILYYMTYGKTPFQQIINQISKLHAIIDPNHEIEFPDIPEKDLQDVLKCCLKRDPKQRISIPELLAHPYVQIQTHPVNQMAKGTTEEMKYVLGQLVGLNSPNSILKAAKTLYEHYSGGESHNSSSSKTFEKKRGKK", "assay": "Inhibition of Mps1 (unknown origin) incubated for 120 mins in presence of substrate/ATP by ADP-Glo assay"}, "[25]": {"target": "T2, Dual specificity protein kinase TTK (Homo sapiens) (UniProt P33981)", "T2 sequence (whole entry)": "T1 sequence (P33981 whole entry)", "assay": "Inhibition of human Mps1 at 1 uM by KINOMEscan assay relative to control"}}, "note": "Activity calls are given as the source filed them. The calls are words filed in the database; no cut-off is given here."}
{"smiles": "CN1CCN(c2ccc(Nc3nc(-n4nc(N)c5ccccc54)c4cc[nH]c4n3)cc2)CC1", "values": [{"measurement": "Activity", "setting": "[1]", "value": "Non-Toxic"}, {"measurement": "Activity", "setting": "4T1-Luc", "value": "Active"}, {"measurement": "Activity", "setting": "[2]", "value": 0.97, "unit": "g"}, {"measurement": "Activity", "setting": "[3]", "value": 1.4, "unit": "g"}, {"measurement": "Activity", "setting": "4T1 [4]", "value": "Active"}, {"measurement": "Activity", "setting": "4T1 [5]", "value": 20.66, "unit": "%"}, {"measurement": "Activity", "setting": "4T1 [6]", "value": 0.6, "unit": "%"}, {"measurement": "Activity", "setting": "4T1 [7]", "value": 5.58, "unit": "%"}, {"measurement": "Activity", "setting": "4T1 [8]", "value": 1.17, "unit": "%"}, {"measurement": "Activity", "setting": "MCF7 [9]", "value": 4.51, "unit": "%"}, {"measurement": "Activity", "setting": "4T1 [10]", "value": "Dose-Dependent Effect"}, {"measurement": "Activity", "setting": "4T1 [11]", "value": "Dose-Dependent Effect"}, {"measurement": "Activity", "setting": "MCF7 [12]", "value": "Dose-Dependent Effect"}, {"measurement": "Activity", "setting": "4T1 [13]", "value": "Active"}, {"measurement": "inhibition", "setting": "4T1 [14]", "value": "Dose-Dependent Effect"}, {"measurement": "inhibition", "setting": "HEY [15]", "value": "Active"}, {"measurement": "IC50", "setting": "A549", "value": 2.03, "unit": "µM"}, {"measurement": "IC50", "setting": "HEY [16]", "value": "> 3", "unit": "µM"}, {"measurement": "inhibition", "setting": "[17]", "value": 86, "unit": "%"}, {"measurement": "inhibition", "setting": "[18]", "value": 52, "unit": "%"}, {"measurement": "inhibition", "setting": "[19]", "value": 28, "unit": "%"}, {"measurement": "inhibition", "setting": "[20]", "value": 65, "unit": "%"}, {"measurement": "inhibition", "setting": "[21]", "value": 100, "unit": "%"}, {"measurement": "inhibition", "setting": "[22]", "value": 100, "unit": "%"}, {"measurement": "inhibition", "setting": "[23]", "value": 92, "unit": "%"}, {"measurement": "IC50", "setting": "[24]", "value": 0.029, "unit": "µM"}, {"measurement": "inhibition", "setting": "[25]", "value": "> 90", "unit": "%"}]}
